Laboratory results from US20230304064A1, “AUTOMATED, DIGITAL DISPENSING PLATFORM FOR MICRODILUTION ANTIMICROBIAL SUSCEPTIBILITY TESTING” (priority 2016, published 2023).
Converted amounts (≈) assume the structure as drawn. Read-outs that look alike come from different tables or passages of the source.

Assays:
E. coli ATCC 25922 [1] = experiment: Microscopy-based AST (MAST): cell morphology at the MIC
[2] = system: carbapenem-resistant Escherichia coli clinical isolates (blaKPC); experiment: DDM (digital dispensing method) MIC testing of CRE isolates; format: cell-based; settings: for MIC: Escherichia coli, read-out: DDM modal MICs
Procedure: (§1) Bacterial strains: The 10 de-identified CRE clinical isolates used in the study were collected at our institution under Institutional Review Board-approved protocols and were sequenced through the carbapenem-resistant Enterobacteriaceae genome initiative at the Broad Institute (Cambridge, MA). All contained a Klebsiella pneumoniae carbapenemase (blaKPC) gene and were colony-purified, minimally passaged, and stored at -80° C. prior to use in this study.
(§2) After incubation, bacterial growth was quantified by measurement of OD600 using an Epoch (BioTek, Winooski, VT) or Spark 10 M microplate reader (Tecan, Morrisville, NC). An OD600 reading of 0.08 or greater (approximately twice typical background readings in wells containing broth alone) was considered indicative of bacterial growth (as also appreciable by visual assessment).
(§3) Precision and accuracy. […] Modal DDM MICs were calculated by taking the mode of all DDM MIC measurements obtained for a given antibiotic-strain combination, inclusive of initial MIC titrations and single-antibiotic rows/columns in synergy arrays (Table 5).

[3] = system: carbapenem-resistant Klebsiella pneumoniae clinical isolates (blaKPC); experiment: as above; format: cell-based; settings: for MIC: Klebsiella pneumoniae, read-out: DDM modal MICs
Procedure: as §1, §2, §3

[4] = in vivo; cited from earlier work
S. aureus = experiment: Automated microscopy cell counting at inhibitory and sub-inhibitory antibiotic concentrations; format: cell-based, Staphylococcus aureus; settings: 4 hours
Procedure: We performed preliminary automated imaging experiments on the Cell Observer microscope (Zeiss, Oberkochen, Germany) (37° C., 640x magnification, DIC). For these experiments, we utilized E. coli ATCC 25922 and S. aureus ATCC 25923 (FIG. 5), prototypical Gram-negative and Gram-positive pathogens. […] Therefore, we conducted automated imaging of the center of 20 wells using 20-50 z-slices of approximately 1 µm thickness. Each image represented approximately 43,500 µm^2. After collapsing z-slices into a single image per well, cells were readily detectable and distributed evenly throughout the field at a density of 10-30 cells per 1000 µm^2 in all wells evaluated.
As proof of concept and preliminary data for image analysis-based direct cell counting, we utilized a machine learning algorithm (Trainable Weka as contained within the Fiji implementation of ImageJ) (Schindelin et al., Nature Methods 9:676-682 (2012)). A training set of 200 manually segmented S. aureus cells was used to establish a model for cell detection. This model accepts raw image data as input (FIG. 7A), classifies each pixel of an image as containing “cells” or “background” resulting in a segmented image (FIG. 7B). The segmented image is then converted to a black and white binary format. A watershed algorithm refines the segmentation by defining borders where two or more cells are in contact with one another and prevents later erroneous single counting of these otherwise fused objects (FIG. 7C). The particle analysis function of ImageJ is then used to identify particles >0.25 µm^2 as individual bacteria (FIG. 7D). Identified bacteria are subsequently counted and their aggregate surface area calculated.
Using our cell counting model, we compared images of S. aureus grown on inhibitory and sub-inhibitory concentrations of antibiotics. […] At the same time point we observed that E. coli cells in wells with sub-inhibitory concentrations of antimicrobial formed large microcolonies, making analysis of individual cells difficult. In cases where individual cells could not be segmented, a machine learning algorithm similar to that outlined in (d) reliably quantifies relative cell coverage in each field.

[5] = system: eighty de-identified Enterobacteriaceae clinical isolates; experiment: organism not typed; format: cell-based; settings: for Non-susceptible strains (%) / Non-susceptible strains n: eighty clinical isolates, reference microdilution, CLSI criteria, EUCAST for colistin
Procedure: K. pneumonia BIDMC12A is a previously described, carbapenem resistant clinical isolate (14) expressing a KPC-3 carbapenemase. The eighty de-identified Enterobacteriaceae clinical isolates (Table 1) used for verification studies were collected at our institution under IRB-approved protocols. All strains were minimally passaged and stored at -80° C. prior to use in this study.
Verification study: Digital dispensing and reference method testing were performed in parallel using the same inoculum preparation. Microdilution reference panels were pre-prepared and stored at -80° C. until use (less than 2 weeks). D300 test method panels were prepared fresh each day of use.
Accuracy was evaluated using established guidelines (16, 17). The MIC determined by the digital dispensing method was compared with the MIC determined by the broth microdilution reference method. Essential agreement, overall essential agreement, and categorical agreement were evaluated as described in the precision study.

[6] = system: Klebsiella pneumoniae strains expressing extended spectrum β-lactamases; settings: cited from earlier work
[7] = system: Klebsiella pneumoniae strains expressing extended spectrum β-lactamases; settings: cited from earlier work; remark: listed apart in the source
E. coli ATCC 25922 [8] = settings: CLSI quality control range; cited from earlier work
E. coli ATCC 25922 [9] = experiment: MIC testing by broth microdilution and D300 digital dispensing (precision study); settings: Escherichia coli, ATCC25922, read-out: reference MIC
P. mirabilis ATCC 702 = experiment: as above; settings: Proteus mirabilis, ATCC702, read-out: reference MIC

Compound	MIC ([2]; BIDMC 6, ECO, KPC type 2) [µg/mL]	MIC ([2]; BIDMC 9, ECO, KPC type 2) [µg/mL]	MIC ([2]; BIDMC 15, ECO, KPC type 2) [µg/mL]	MIC ([2]; BIDMC 17A, ECO, KPC type 2) [µg/mL]	MIC ([2]; BIDMC 20A, ECO, KPC type 3) [µg/mL]	MIC ([3]; BIDMC 4, KPN, KPC type 3) [µg/mL]	MIC ([3]; BIDMC 5, KPN, KPC type 3) [µg/mL]	MIC ([3]; BIDMC 10, KPN, KPC type 3) [µg/mL]	MIC ([3]; BIDMC 12A, KPN, KPC type 3) [µg/mL]	MIC ([3]; BIDMC 18A, KPN, KPC type 2) [µg/mL]	Non-susceptible strains (%) [5] [%]	Non-susceptible strains n [5]	further results
O=C(O)c1cn(C2CC2)c2cc(N3CCNCC3)c(F)cc2c1=O [Ciprofloxacin (CIP), Ciprofloxacin]	–	–	–	–	–	–	–	–	–	–	–	–	cell morphology at the MIC (E. coli ATCC 25922 [1]; MAST, 2-hour incubation): elongated cells that failed to divide
CN(C)c1ccc(O)c2c1C[C@H]1C[C@H]3[C@H](N(C)C)C(O)=C(C(N)=O)C(=O)[C@@]3(O)C(O)=C1C2=O [MIN, minocycline]	1	1	1	1	4	8	16	4	4	2	–	–	serum concentrations [4]: higher serum concentrations than tigecycline; side effects [4]: generally favorable side-effect profile
CC1(C)S[C@@H]2[C@H](NC(=O)[C@H](N)c3ccccc3)C(=O)N2[C@H]1C(=O)O [Ampicillin (AMP), Ampicillin]	–	–	–	–	–	–	–	–	–	–	81.3	65	area occupied by cells (S. aureus; 0.5 × the MIC): 555 µm^2; cells detected (S. aureus; 0.5 × the MIC): 242 cells; reduction of cell numbers at the MIC vs 0.5 × the MIC (S. aureus): 5 fold; area occupied by cells (S. aureus; at the MIC): 47 µm^2; cells detected (S. aureus; at the MIC): 51 cells
C[C@@H]1O[C@@H]1P(=O)(O)O [FOF, fosfomycin]	0.5	0.5	0.5	0.5	1	128	8	64	8	4	–	–	–
CN(C)[C@@H]1C(O)=C(C(N)=O)C(=O)[C@@]2(O)C(O)=C3C(=O)c4c(O)cccc4[C@@](C)(O)[C@H]3C[C@@H]12 [Tetracycline (TET), Tetracycline]	–	–	–	–	–	–	–	–	–	–	42.5	34	–
C[C@@H](O)[C@H]1C(=O)N2C(C(=O)O)=C(S[C@@H]3CN[C@H](C(=O)N(C)C)C3)[C@H](C)[C@H]12 [Meropenem (MEM), Meropenem]	2	4	4	2	1	32	8	4	8	32	17.5	14	MIC ([5]; read-out: modal MIC): 0.03 µg/mL (≈ 0.0782 µM); survival of infected mice after treatment ([6]; high dose inoculum): survived; survival of infected mice after treatment ([6]; low bacterial inoculum): survived; cell morphology at the MIC (E. coli ATCC 25922 [1]; E. coli after 2 hours, FIG. 13): swelling; cell morphology at the MIC (E. coli ATCC 25922 [1]; MAST, 2-hour incubation): rounded sphereoplasts; in vitro inoculum effect [7]: insignificant inoculum effect
CO[C@H]1/C=C/O[C@@]2(C)Oc3c(C)c(O)c4c(O)c(c(/C=N/N5CCN(C)CC5)c(O)c4c3C2=O)NC(=O)/C(C)=C\C=C\[C@H](C)[C@H](O)[C@@H](C)[C@@H](O)[C@@H](C)[C@H](OC(C)=O)[C@@H]1C [RIF, rifampin]	16	16	32	32	16	32	32	32	32	16	–	–	–
CN(C)c1cc(NC(=O)CNC(C)(C)C)c(O)c2c1C[C@H]1C[C@H]3[C@H](N(C)C)C(O)=C(C(N)=O)C(=O)[C@@]3(O)C(O)=C1C2=O [tigecycline]	–	–	–	–	–	–	–	–	–	–	–	–	side effects [4]: significant rates of nausea and vomiting; urinary excretion [4]: limited urinary excretion
Gentamicin [Gentamicin (GEN)]	–	–	–	–	–	–	–	–	–	–	31.3	25	DDM modal MICs ([2]; BIDMC 6, ECO, KPC type 2): >32 mg/L; DDM modal MICs ([2]; BIDMC 9, ECO, KPC type 2): >32 mg/L; DDM modal MICs ([2]; BIDMC 15, ECO, KPC type 2): 64 mg/L; DDM modal MICs ([2]; BIDMC 17A, ECO, KPC type 2): >32 mg/L; DDM modal MICs ([2]; BIDMC 20A, ECO, KPC type 3): 0.5 mg/L; DDM modal MICs ([3]; BIDMC 4, KPN, KPC type 3): 32 mg/L; DDM modal MICs ([3]; BIDMC 5, KPN, KPC type 3): 32 mg/L; DDM modal MICs ([3]; BIDMC 10, KPN, KPC type 3): 32 mg/L; DDM modal MICs ([3]; BIDMC 12A, KPN, KPC type 3): 1 mg/L; DDM modal MICs ([3]; BIDMC 18A, KPN, KPC type 2): 64 mg/L; cell morphology at the MIC (E. coli ATCC 25922 [1]; MAST, 2-hour incubation): blocked cell growth, but did not appreciably alter morphology
Cc1nnc(SCC2=C(C(=O)O)N3C(=O)[C@@H](NC(=O)Cn4cnnn4)[C@H]3SC2)s1 [Cefazolin (CFZ), Cefazolin]	–	–	–	–	–	–	–	–	–	–	–	–	quality control range (MIC) (E. coli ATCC 25922 [8]): 1 to 4 µg/mL; MIC (E. coli ATCC 25922 [9]): 2 µg/mL (≈ 4.4 µM); MIC (P. mirabilis ATCC 702): 4 µg/mL (≈ 8.8 µM)
C[C@H]1COc2c(N3CCN(C)CC3)c(F)cc3c(=O)c(C(=O)O)cn1c23 [LVX, levofloxacin]	16	16	32	16	32	128	> 64	16	32	64	–	–	–
O=C(N[C@H](CO)[C@H](O)c1ccc([N+](=O)[O-])cc1)C(Cl)Cl [CHL, chloramphenicol]	8	8	8	8	16	–	–	> 64	64	–	–	–	–
